Source: patent US8815210B2, “Diagnostic composition comprising plasma cations having superior safety profile” (GE Healthcare AS, priority 2009, dated 2014)

Columns and labels:
[1] = Partition coefficient between octanol and water; type: physicochemical; conditions: n-octanol/water
Experimental: As a measure of the hydrophilicity of Compound I, the partition coefficient between octanol and water was determined. Water (5 ml) containing the test substance (0.3 mg/ml) was shaken with 15 ml n-octanol until equilibrium had been obtained. The aqueous phase was separated by centrifugation and analyzed by HPLC (HP1100 equipped with a Discovery C18 column, 100×2.1 mm) using UV detection at 244 nm and a flow of 0.3 ml/min. Isocratic HPLC conditions were used, 8% acetonitrile in water (v/v). The octanol phase (12.5 ml) was extracted with water (0.75 ml) until equilibrium had been obtained and the phases were separated by centrifugation. The aqueous phase was analyzed by HPLC using the conditions detailed above. Both octanol and water were pre-saturated with water and octanol, respectively, before the partition coefficient experiments. […] As a comparison, the corresponding logP of iodixanol was determined to −4.02. The reported literature value is −4.05. The increased hydrophilicity of Compound I compared to iodixanol is confirmed by its HPLC behavior.

Sca:SD rats = conditions: rat, in vivo
Experimental: Young adult male Sca:SD rats (Scanbur, Sweden), weighing 200±20 g, were injected intravenously at a rate of 1.2 ml/min with either Compound I (340 mgI/mL, 286 mosmol/kg), iodixanol (321 mgI/mL, 284 mosmol/kg), osmotic control mannitol (283 mosmol/kg), or saline (290 mosmol/kg), administered as 2 separate doses 4 hours apart. For the interim kill animals (day 2 post-treatment), Compound I and iodixanol were dosed at 8, 10 and 12.8 gI/kg, corresponding to total dose volumes of 23.7, 29.7 and 38.0 ml/kg, and 25, 31.3 and 40 ml/kg, respectively, whereas for mannitol and saline, the dose volume was 40 ml/kg. For the 7 day terminal kill animals, there were 4 dose groups; Compound I and iodixanol (12.8 gI/kg), and saline and mannitol (40 mL/kg). In all cases, each group included 8 animals.
The following evaluations were made during the study; clinical signs, body weights and blood for haematology and clinical chemistry on days 0, 2 and 7, and gross observations, organ weight and histomorphological examination of tissues from the animals killed by excess intravenous thiopental injection on days 2 or 7. The day of dosing was defined as Day 0. Clinical biochemistry parameters (Na, K, Cl, PO4, Ca, AST, ALT, ALP, cholesterol, creatinine, CK, GGT, TG (triglyceride), total bilirubin, total protein, urea, albumin, LDH and GLDH were measured on a Beckman Synchron CX5 at 37° C. Haematology parameters (WBC, differential WBC, RBC, WBC/RBC ratio, Hgb, PLT, HCT, MCH, MCHC, MCV, MPV and RDW) were analyzed with an Abbott Cell-Dyn 3500 CS automated haematology analyzer. Kidneys from saline control and the 12.8 gI/kg Compound I and iodixanol groups were immerse fixed in 10% neutral buffered formalin, processed into paraffin wax, sectioned at a nominal thickness of 5 μm, stained with haematoxylin and eosin and examined by light microscopy.
The data were analysed by parametric one-way ANOVA, followed by Dunnett's post procedure test, using the 2 days and 7 days saline groups for comparison with the 2 days and 7 days iodixanol and Compound I groups. The statistical analysis was applied on day −1 (baseline), day 2 and day 7.

normal pigs = assay: Haemodynamic effects after fast LAD injection in normal pigs (Example 2c); type: in vivo, pig; conditions: 40 ml at 5 ml/sec into LAD; Compound I in composition with 45 mM NaCl and 0.5 mM CaCl2
Experimental: FIG. 6 a) and b) depicts the effect on cardiovascular parameters following injection of 40 ml (5 ml/sec) of Ringer Lactate, Compound I, Visipaque or Iopamidol to the LAD of normal pigs.
In a further study the haemodynamic effects of Compound I in a composition with 45 mM NaCl and 0.5 mM CaCl2 was compared to Visipaque and Iopamidol following selective administration to the LAD of normal pigs with a fast injection rate (5 ml/sec). Ringer Lactate was also studied as a volume and electrolyte “ratio” control. In total 3 pigs were studied, and each CM was administered twice to each pig in random order. The injection rate used was 5 ml/sec with a total injection volume of 40 ml.

O=CN(CC(O)CN(C=O)c1c(I)c(C(=O)NCC(O)CO)c(I)c(C(=O)NCC(O)CO)c1I)c1c(I)c(C(=O)NCC(O)CO)c(I)c(C(=O)NCC(O)CO)c1I (stereo not drawn) [Compound I, 5-[formyl-[3-[formyl-[3,5-bis(2,3-dihydroxypropylcarbamoyl)-2,4,6-triiodophenyl]amino]-2-hydroxypropyl]amino]-N,N′-bis(2,3-dihydroxypropyl)-2,4,6-triiodobenzene-1,3-dicarboxamide]
logP [1]: -4.28 | Proximal Tubule Vacuolation, Left Kidney (Sca:SD rats; male, Sca:SD, 2 day): 3, 3, 3, 3 | duration of clinical signs (Sca:SD rats; male, Sca:SD, iv): 2 to 3 h | onset of clinical signs after the first administration (Sca:SD rats; male, Sca:SD, iv): 10 to 20 min | adverse clinical signs (Sca:SD rats; iv): mild to moderate depression and uncoordinated movements and weakness/inactivity | increase in LVSP from baseline (normal pigs): ~5%
